Series [1] has as its target bovine intestinal alkaline phosphatase (Bos taurus (Bovine), UniProt P19111). Briefly: BiALP: conversion by bovine intestinal alkaline phosphatase. The following applies: 2 μM substrate, 100 ng/mL iALP, Tris pH 7.8, 37° C., 60 minutes; for [Intermediate A] or [Amprenavir]: parent formed. Format: in vitro ADME. As to the method: Fosamprenavir and its parent compound (amprenavir) were purchased from Millipore Sigma (St. Louis, MO). Test compounds, Intermediate A, fosamprenavir, and amprenavir were each separately dissolved in dimethyl sulfoxide (DMSO) at a concentration of 10 mM to form stock solutions.
All other chemicals were purchased from Millipore Sigma (St. Louis, MO) and Thermo Fisher Scientific (Waltham, MA). […] Internal Standard/Quench (IS/Q) was 100 nM labetalol in 99:1 (v/v) acetonitrile/formic acid.
Incubations were performed with Tris buffer alone (0.1 M Tris-HCl pH 7.8 containing 1 mM MgCl2 and 1 mM ZnCl2) or the same Tris buffer further containing 100 ng/mL iALP (0.01 units/mL). Triplicate 100 μL aliquots of Tris buffer±iALP were warmed to 37° C. and the reactions were initiated by the addition of the test compound or fosamprenavir to obtain final substrate concentrations of 2 μM. Incubations were then continued at 37° C. At 60 minutes, reactions were terminated by the addition of 200 μl of IS/Q and mixed by pipette. […] Aliquots (150 μL) of the supernatants were transferred to fresh plates containing 150 μL of water. Aliquots (15 μL) of the diluted supernatants were analyzed by mass spectrometry as described below.
Quantification of the test compounds and fosamprenavir was performed by analyte/internal standard peak area ratios (PARs) with comparison to 2 μM Intermediate A and amprenavir, respectively. The LC instrumentation consisted of a Thermo Scientific Vanquish pump and a Thermo Hypersil Gold column (1.9 μm particle size, 2.1×50 mm). […] The MS instrument was a Thermo Q Exactive™ Plus operating in positive ionization mode with mass tolerance of 5 ppm and calibrated on a twice weekly basis.

Series [2] can be described thus: PBS Stability Assay. Format: physicochemical. The note with it: phosphate buffered saline pH 7.4; for half-life at 2 μM: buffer, pH 7.4, 2 μM, read-out: PBS T½; for PBS T½: 2 μM. As to the method:
Reagents. Stock solutions of test compounds in dimethyl sulfoxide (DMSO) having a final concentration of 10 mM were prepared and used in all experiments. Sekisui XenoTech (Kansas City, KS) provided pooled intestinal S9 fractions. All other chemicals were purchased from Sigma-Aldrich (St. Louis, MO) or VWR (West Chester, PA). Internal Standard/Quench (IS/Q) used to stop reactions was 100 nM labetalol in (by volume) formic acid (1%) and acetonitrile (99%).
PBS Stability Assay: For each test compound, an aliquot of the test compound was added to phosphate buffered saline (137 mM NaCl, 2.7 mM KCl, 10 mM phosphate buffer), pH 7.4. The incubation was initiated by the addition of the test compound to PBS to a final concentration of 2 μM. At 0, 10, 20, 30, 60 and 120 min, 25 μL aliquots of the incubation mixture were transferred to plates containing 225 μl of IS/Q solution. After quenching, the plates were centrifuged at 3000×g for 30 minutes. 150 μL aliquots of each supernatant were transferred to new plates and 150 μL water was added. Aliquots (10 μL) of the prepared samples were analyzed on a Thermo Q-Exactive mass spectrometer as described below.
Liquid Chromatography-Mass Spectrometry: Quantification of test compounds and control substrate was performed by analyte/internal standard peak area ratio (PAR) values measured on a Thermo Q-Exactive mass spectrometer coupled to a Dionex UltiMate 3000 HPLC with a Leap Technologies HTC PAL autosampler. The column used for analysis was a Thermo Scientific Hypersil GOLD (1.9 μm particle size, 50×2.1 mm). Mobile phase A consisted of 0.1% (v/v) formic acid in water. Mobile phase B consisted of 0.1% (v/v) formic acid in acetonitrile. Elution of analytes was achieved by a series of linear gradients varying the proportions of A and B. The mass spectrometer was calibrated on a weekly basis and mass tolerance of 5 ppm was used.
Data Analysis. Metabolic stabilities were determined by measuring the rates of disappearance of test compound and positive control substrate. Data (% of substrate remaining) were plotted on a semi-log scale and fitted using an exponential decline model:
where • Ct% of substrate remaining at time=t • C0% of substrate remaining at time=0 • t time • T½ half-life • The Half-life (T½) is determined by the following equation:
[formula] • Assuming a first-order reaction, the slope (k) is extrapolated from the aforementioned plotted data.

In series [3] the test system is HIV-1 IIIB strain. Briefly: MT-4 HIV Wild Type Virus Infection Assay (IIIB Virus). It counts as cell-based. The following applies: MT-4 cells acutely infected with HIV-1 IIIB, 5 day incubation, Cell-titer glo. As to the method: Test compounds and controls were serially diluted and spotted in replicate into 384 well black assay plates via acoustic transfer (Echo). MT-4 cells were grown in batch, centrifuged and resuspended into fresh CCM media (RPMI w/10% FBS, 1% PS) at 2×10^6 cells/ml. MT-4 cells were acutely infected with HIV-1 IIIB strain. The size of each infection mix was scaled by the number of sample plates to be tested. Each infection mix was transferred into 5 mL closed tubes and nutated rapidly on a shaker at 37° C. incubator for 1 hour. The infection mixes were then diluted 25× in fresh cell culture media and then added to assay plates at 40 μL per well using a ViaFlo 384 pipettor. After 5 day incubation at 37° C. in a CO2 incubator, assay plates were processed with Cell-titer glo reagent using a ViaFlo 384 with an addition/mixing program. Plates were read immediately on Envision reader. Assay signals were plotted and dose response curves generated to determine individual compound EC50s.

The nature of series [4]: physchem. The following applies: 23 °C, pH 6.5, fassif, thermodynamic from solid. Here is the method:
Buffer Preparation: Fasted State Simulated Intestinal Fluid (FaSSIF): Simulated Intestinal Fluid (SIF) powder containing a complex of Taurocholate and Lecithin (4:1 molar ratio) was obtained from Biorelevant. 0.056 g of SIF powder was added to 25 mL of buffer, adjusted to pH 6.5, containing 0.011 g of NaOH (pellets), 0.099 g of NaH2PO4 (monohydrate), and 0.155 g of NaCl. The buffer was prepared with HPLC H2O. The SIE powder was stirred until completely dissolved and allowed to stand for 2 hours.
Test Compounds: Each test compound was placed in a vial containing approximately 7 mg of material. Aliquots were weighed out for each assay media at each time point to be analyzed. The buffer was added to each vial such that the final dose concentration of 5 mg/mL was achieved. Samples were then vortexed for 5-10 seconds.
The plate was sealed with a pierceable heat seal and analyzed by HPLC-UV.

Where [5] appears, read: Human immunodeficiency virus 1, IIIB, MT4, 120 h.

The values that follow come from patent US20250051375A1, “ANTI-HIV COMPOUNDS” (Gilead Sciences, Inc., priority 2023, published 2025).

Values after ≈ are worked out from the molar mass of the structure shown. Read-outs that look alike come from different tables or passages of the source.

bovine intestinal alkaline phosphatase, sequence (P19111 20-506): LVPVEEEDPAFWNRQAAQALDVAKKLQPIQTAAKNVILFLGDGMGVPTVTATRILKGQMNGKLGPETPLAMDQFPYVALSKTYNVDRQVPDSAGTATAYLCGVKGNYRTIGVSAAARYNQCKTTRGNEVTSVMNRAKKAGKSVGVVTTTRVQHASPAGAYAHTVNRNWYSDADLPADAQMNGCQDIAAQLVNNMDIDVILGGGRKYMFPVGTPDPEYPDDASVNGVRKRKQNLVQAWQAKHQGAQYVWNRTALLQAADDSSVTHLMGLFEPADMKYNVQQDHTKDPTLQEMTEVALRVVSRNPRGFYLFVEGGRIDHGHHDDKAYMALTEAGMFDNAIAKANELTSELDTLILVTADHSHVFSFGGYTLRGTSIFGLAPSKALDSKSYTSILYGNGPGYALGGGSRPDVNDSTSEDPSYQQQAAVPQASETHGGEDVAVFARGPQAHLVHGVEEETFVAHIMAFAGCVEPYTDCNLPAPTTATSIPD

The term EC50 denotes the concentration at which the effect is half-maximal. In general, solubility refers to the dissolved amount per volume that the medium holds. Read a high solubility as much dissolved substance. `COC(=O)N[C@H](C(=O)N[C@@H](Cc1ccc(C#Cc2cnc(N3CC4CCC(C3)N4C3COC3)nc2)cc1)[C@H](CN(Cc1c(F)cc(-c2ccn(C(F)F)n2)cc1F)NC(=O)[C@@H](NC(=O)OC)C(C)(C)C(F)(F)F)OC(=O)OCOC(=O)CC(C)(C)c1c(CC(=O)O)cc(C)cc1OP(=O)(O)O)C(C)(C)C(F)(F)F` [Example 20]: in series [1], the “[Compound]” value is 1351.2 nM, the “biALP Intermediate A or [Amprenavir] (% of total)” value is on record as 48.6 % of total and the “[Intermediate A] or [Amprenavir]” value stood at 1276.2 nM. Moreover, in series [2], the half-life at 2 μM was 390 min. Further, the EC50 in series [3] (Human immunodeficiency virus 1, IIIB, MT4, 120 h, read-out: EC50) worked out at 0.7 nM. In series [4] (FaSSIF (pH 6.5) solubility, FaSSIF pH 6.5, dose 5 mg/mL, 2-hour incubation, ambient temperature), this molecule came in with a solubility of 220 µg/mL (≈ 141 µM).
`COC(=O)N[C@H](C(=O)N[C@@H](Cc1ccc(C#Cc2cnc(N3CC4CCC(C3)N4C3COC3)nc2)cc1)[C@H](CN(Cc1c(F)cc(-c2ccn(C(F)F)n2)cc1F)NC(=O)[C@@H](NC(=O)OC)C(C)(C)C(F)(F)F)OC(=O)OCOC(=O)CC(C)(C)c1c(CC(=O)NCCS(=O)(=O)O)cc(C)cc1OP(=O)(O)O)C(C)(C)C(F)(F)F` [Example 21]: in series [1], the “[Compound]” value is 1281.9 nM, the “biALP Intermediate A or [Amprenavir] (% of total)” value is 44.7 % of total and the “[Intermediate A] or [Amprenavir]” value was found to be 1034.6 nM. Besides, the “PBS T½” value in series [2] came to 789 min. This molecule returned an EC50 in series [3] (setting [5]) of 3.6 nM. For the same molecule, the solubility at 2 h in series [4] worked out at 4340 µg/mL (≈ 2610 µM).
On to `COC(=O)N[C@H](C(=O)N[C@@H](Cc1ccc(C#Cc2cnc(N3CC4CCC(C3)N4C3COC3)nc2)cc1)[C@H](CN(Cc1c(F)cc(-c2ccn(C(F)F)n2)cc1F)NC(=O)[C@@H](NC(=O)OC)C(C)(C)C(F)(F)F)OC(=O)OCOC(=O)CC(C)(C)c1c(CC(=O)NCC(=O)NS(C)(=O)=O)cc(C)cc1OP(=O)(O)O)C(C)(C)C(F)(F)F` [Example 22], for which, in series [1], the “[Compound]” value is 1221.6 nM, the “biALP Intermediate A or [Amprenavir] (% of total)” value was 54.6 % of total and the “[Intermediate A] or [Amprenavir]” value came out at 1468.7 nM. Moreover, the half-life at 2 μM in series [2] came to 373 min. In addition, the EC50 in series [3] (setting [5]) was found to be 9.9 nM. The molecule further came in with a solubility at 2 h in series [4] of 4720 µg/mL (≈ 2790 µM).
For the molecule `COC(=O)N[C@H](C(=O)N[C@@H](Cc1ccc(C#Cc2cnc(N3CC4CCC(C3)N4C3COC3)nc2)cc1)[C@H](CN(Cc1c(F)cc(-c2ccn(C(F)F)n2)cc1F)NC(=O)[C@@H](NC(=O)OC)C(C)(C)C(F)(F)F)OC(=O)CC(C)(C)c1c(CC(=O)NCCCS(=O)(=O)O)cc(C)cc1OP(=O)(O)O)C(C)(C)C(F)(F)F` [Example 25], in series [1], the “[Compound]” value is recorded as 2023.7 nM. Moreover, in series [2], the half-life at 2 μM was found to be 82.4 min. For the same molecule, the EC50 in series [3] (setting [5]) was 62.7 nM. In addition, the concentration in solution in series [4] (solubility at 2 h) was 2410 µg/mL (≈ 1500 µM).
The corresponding values for `COC(=O)N[C@H](C(=O)N[C@@H](Cc1ccc(C#Cc2cnc(N3CC4CCC(C3)N4C3COC3)nc2)cc1)[C@H](CN(Cc1c(F)cc(-c2ccn(C(F)F)n2)cc1F)NC(=O)[C@@H](NC(=O)OC)C(C)(C)C(F)(F)F)OC(=O)CC(C)(C)c1c(CC(=O)NCCC(=O)O)cc(C)cc1OP(=O)(O)O)C(C)(C)C(F)(F)F` [Example 26] are 1764 nM, 146 min, 96.9 nM and 1440 µg/mL (≈ 923 µM).
The corresponding values for `COC(=O)N[C@H](C(=O)N[C@@H](Cc1ccc(C#Cc2cnc(N3CC4CCC(C3)N4C3COC3)nc2)cc1)[C@H](CN(Cc1c(F)cc(-c2ccn(C(F)F)n2)cc1F)NC(=O)[C@@H](NC(=O)OC)C(C)(C)C(F)(F)F)OC(=O)CC(C)(C)c1c(CC(=O)NC(CP(=O)(O)O)C(=O)O)cc(C)cc1OP(=O)(O)O)C(C)(C)C(F)(F)F` (stereo partly drawn) [Example 34] are 2238.2 nM, 305 min, 179 nM and 4810 µg/mL (≈ 2940 µM).
For `COC(=O)N[C@H](C(=O)N[C@@H](Cc1ccc(C#Cc2cnc(N3CC4CCC(C3)N4C3COC3)nc2)cc1)[C@H](CN(Cc1c(F)cc(-c2ccn(C(F)F)n2)cc1F)NC(=O)[C@@H](NC(=O)OC)C(C)(C)C(F)(F)F)OC(=O)CC(C)(C)c1c(CC(=O)N(CCCC(=O)O)CCC(=O)O)cc(C)cc1OP(=O)(O)O)C(C)(C)C(F)(F)F` [Example 36], in series [1], the “[Compound]” value stood at 1383.3 nM. In addition, the half-life at 2 μM in series [2] turned out to be 656 min. Moreover, the EC50 in series [3] (setting [5]) came out at 97.4 nM. This molecule also showed a solubility at 2 h in series [4] of 4260 µg/mL (≈ 2590 µM).
In the same order, the values of `COC(=O)N[C@H](C(=O)N[C@@H](Cc1ccc(C#Cc2cnc(N3CC4CCC(C3)N4C3COC3)nc2)cc1)[C@H](CN(Cc1c(F)cc(-c2ccn(C(F)F)n2)cc1F)NC(=O)[C@@H](NC(=O)OC)C(C)(C)C(F)(F)F)OC(=O)CC(C)(C)c1c(CC(=O)NC(CCCC(=O)O)CC(=O)O)cc(C)cc1OP(=O)(O)O)C(C)(C)C(F)(F)F` (stereo partly drawn) [Example 37] are 1518.9 nM, 439 min, 41.8 nM and 4460 µg/mL (≈ 2720 µM).
Turning to `COC(=O)N[C@H](C(=O)N[C@@H](Cc1ccc(C#Cc2cnc(N3CC4CCC(C3)N4C3COC3)nc2)cc1)[C@H](CN(Cc1c(F)cc(-c2ccn(C(F)F)n2)cc1F)NC(=O)[C@@H](NC(=O)OC)C(C)(C)C(F)(F)F)OC(=O)CC(C)(C)c1c(CC(=O)NC(CCCC(=O)O)C(=O)O)cc(C)cc1OP(=O)(O)O)C(C)(C)C(F)(F)F` (stereo partly drawn) [Example 42], the “[Compound]” value in series [1] was 1335 nM. For the same molecule, the “PBS T½” value in series [2] worked out at 361.5 min. Also, the EC50 in series [3] was found to be 49.1 nM. Further, the solubility at 2 h in series [4] stood at 4020 µg/mL (≈ 2470 µM).
